Experimental data reported in patent publication US8283465B2, “Triazolopyridine compound, and action thereof as prolyl hydroxylase inhibitor or erythropoietin production-inducing agent” (Japan Tobacco Inc., priority 2009, dated 2012).
Counter-ions that a name gives are not always drawn.

Key:
[1] = test system: human EPO production, Hep3B cells; test: Human EPO production activity in Hep3B cells (EPO-ELISA of culture supernatant); assay type: cell-based; conditions: for EC50: Homo sapiens, 24 hr incubation, values consisting solely of numbers, read-out: EC50 (μM) in vitro, human EPO production activity; for production activity (%) at 30 μM in vitro, human EPO: 24 hr, values containing %, relative to maximum production
In short: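 Hep3B cells were dosed with compound 24 h after plating and incubated 24 h at 37° C. Secreted EPO in supernatant was measured by ELISA. Values are EC50, or activity (%) at 30 μM scaled between untreated and maximum production.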

human PHD2 = biological target: T1, human PHD2 (Homo sapiens, UniProt Q9GZT9); test: Measurement of human PHD inhibitory activity (TR-FRET, hydroxylation of HIF-1α partial peptide); assay type: biochemical; conditions: human PHD2 enzyme 1 nM, 25° C. 30 min, values consisting solely of numbers; read-out: IC50 (μM) in vitro, human PHD inhibitory activity
T1 construct: made in house; host or cells: Sf9 insect cells (baculovirus, pVL1393 vector)
T1 sequence (Q9GZT9 whole entry): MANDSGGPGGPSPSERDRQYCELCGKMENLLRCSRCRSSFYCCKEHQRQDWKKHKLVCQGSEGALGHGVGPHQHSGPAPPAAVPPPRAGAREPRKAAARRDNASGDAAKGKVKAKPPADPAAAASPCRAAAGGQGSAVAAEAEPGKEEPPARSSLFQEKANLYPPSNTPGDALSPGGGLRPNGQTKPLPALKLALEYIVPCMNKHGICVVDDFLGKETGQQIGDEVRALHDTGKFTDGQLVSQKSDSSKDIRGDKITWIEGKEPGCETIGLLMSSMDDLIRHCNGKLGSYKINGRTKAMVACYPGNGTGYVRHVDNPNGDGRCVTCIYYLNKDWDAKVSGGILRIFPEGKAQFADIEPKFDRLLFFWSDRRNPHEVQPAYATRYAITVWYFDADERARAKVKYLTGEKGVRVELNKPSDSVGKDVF
In short: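 FLAG-tagged human PHD2 from Sf9 cells (1 nM final) hydroxylates a biotinylated 19-residue HIF-1α peptide, 30 min at 25° C. After EDTA stop, hydroxyproline detected by TR-FRET using Eu/Xlent-labelled VBC complex; % inhibition relative to no-enzyme and no-compound wells.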

With `CC(C)CCc1cc(O)c(C(=O)NCC(=O)O)c2ncnn12` [Example 18, {[7-hydroxy-5-(3-methylbutyl)[1,2,4]triazolo[1,5-a]pyridine-8-carbonyl]amino}acetic acid hydrochloride] as the molecule, how does the EC50 [1] read?
The EC50 was 6.1 µM.

What about the IC50 (human PHD2) of the same molecule?
Its IC50 is 0.48 µM.

With `Cc1nnc2c(C(=O)NCC(=O)O)c(O)c(-c3ccccc3)cn12.Cl` [Example 112, [(7-hydroxy-3-methyl-6-phenyl[1,2,4]triazolo[4,3-a]pyridine-8-carbonyl)amino] acetic acid hydrochloride] as the molecule, how does the “production activity (%) at 30 μM in vitro, human EPO” value (from here on “production activity (%) at 30 μM”) [1] read?
Its value is 0%.

And the IC50 (human PHD2)?
The IC50 was 3.09 µM.

For `O=C(O)CNC(=O)c1c(O)cc(C2CCCC2)n2ncnc12` [Example 30, [(5-cyclopentyl-7-hydroxy[1,2,4]triazolo[1,5-a]pyridine-8-carbonyl)amino]acetic acid hydrochloride], which EC50 [1] is on record?
Its EC50 is 15.4 µM.

What about the IC50 (human PHD2) of the same molecule?
Its IC50 is 0.98 µM.

With `O=C(O)CNC(=O)c1c(O)cc(-c2ccc(Cl)cc2F)n2ncnc12` [Example 62, {[5-(4-chloro-2-fluorophenyl)-7-hydroxy[1,2,4]triazolo[1,5-a]pyridine-8-carbonyl]amino} acetic acid hydrochloride] as the molecule, how does the EC50 [1] read?
Its EC50 is 10.1 µM.

And the IC50 (human PHD2)?
Its IC50 is 0.28 µM.

Which results are given for `O=C(O)CNC(=O)c1c(O)cc(-c2cccc(Cl)c2F)n2ncnc12` [Example 56, {[5-(3-chloro-2-fluorophenyl)-7-hydroxy[1,2,4]triazolo[1,5-a]pyridine-8-carbonyl]amino} acetic acid hydrochloride]?
EC50 [1]: 8.4 µM; IC50 (human PHD2): 0.19 µM

How did the “production activity (%) at 30 μM” value [1] turn out when `O=C(O)CNC(=O)c1c(O)ccc2cnnn12` [Example 11, [(6-hydroxy[1,2,3]triazolo[1,5-a]pyridine-7-carbonyl)amino]acetic acid] was run?
The value was 1%.

And the IC50 (human PHD2)?
The IC50 was 0.29 µM.

Which “production activity (%) at 30 μM” value [1] does the source give for `CC(C)c1cc(O)c(C(=O)NCC(=O)O)c2ncnn12` [Example 35, [(7-hydroxy-5-isopropyl[1,2,4]triazolo[1,5-a]pyridine-8-carbonyl)amino]acetic acid hydrochloride] here?
The value was 43%.

And the IC50 (human PHD2)?
The IC50 was 0.88 µM.

With `O=C(O)CNC(=O)c1c(O)cc(-c2cc(F)cc(F)c2)n2ncnc12` [Example 21, {[5-(3,5-difluorophenyl)-7-hydroxy[1,2,4]triazolo[1,5-a]pyridine-8-carbonyl]amino}acetic acid] as the molecule, how does the EC50 [1] read?
The EC50 was 12 µM.

And the IC50 (human PHD2)?
The IC50 was 0.25 µM.

With `O=C(O)CNC(=O)c1c(O)cc(-c2ccc(Cl)cc2)c2ncnn12` [Example 108, {[8-(4-chlorophenyl)-6-hydroxy[1,2,4]triazolo[1,5-a]pyridine-5-carbonyl]amino} acetic acid] as the molecule, how does the EC50 [1] read?
Its EC50 is 8.9 µM.

What about the IC50 (human PHD2) of the same molecule?
Its IC50 is 0.16 µM.

What does the source list for `O=C(O)CNC(=O)c1c(O)cc(-c2ccc(F)c(C(F)(F)F)c2)n2ncnc12` [Example 1, {[5-(4-fluoro-3-trifluoromethylphenyl)-7-hydroxy[1,2,4]triazolo[1,5-a]pyridine-8-carbonyl]amino}acetic acid hydrochloride]?
EC50 [1]: 9.9 µM; IC50 (human PHD2): 0.42 µM

`O=C(O)CNC(=O)c1c(O)cc(CCC2CCCC2)c2ncnn12` [Example 99, {[8-(2-cyclopentylethyl)-6-hydroxy[1,2,4]triazolo[1,5-a]pyridine-5-carbonyl]amino} acetic acid hydrochloride] was tested. Which EC50 [1] did it give?
Its EC50 is 20.2 µM.

What about the IC50 (human PHD2) of the same molecule?
The IC50 was 0.87 µM.

Which results are given for `O=C(O)CNC(=O)c1c(O)cc(-c2ccc(Cl)s2)c2ncnn12` [Example 96, {[8-(5-chlorothiophen-2-yl)-6-hydroxy[1,2,4]triazolo[1,5-a]pyridine-5-carbonyl]amino} acetic acid hydrochloride]?
EC50 [1]: 5.9 µM; IC50 (human PHD2): 0.29 µM

How did the EC50 [1] turn out when `O=C(O)CNC(=O)c1c(O)cc(CCCc2ccccc2)n2ncnc12` [Example 29, {[7-hydroxy-5-(3-phenylpropyl)[1,2,4]triazolo[1,5-a]pyridine-8-carbonyl]amino}acetic acid] was run?
The EC50 was 11.3 µM.

What about the IC50 (human PHD2) of the same molecule?
The IC50 was 0.92 µM.

`O=C(O)CNC(=O)c1c(O)cc(-c2ccc(F)c(C(F)(F)F)c2)c2ncnn12` [Example 106, {[8-(4-fluoro-3-trifluoromethyl-phenyl)-6-hydroxy[1,2,4]triazolo[1,5-a]pyridine-5-carbonyl]amino} acetic acid hydrochloride] was tested. Which EC50 [1] did it give?
Its EC50 is 6 µM.

And the IC50 (human PHD2)?
The IC50 was 0.23 µM.

With `CCC(C)(C)CCc1cc(O)c(C(=O)NCC(=O)O)c2ncnn12` [Example 48, hydrochloride] as the molecule, how does the EC50 [1] read?
Its EC50 is 4.5 µM.

What about the IC50 (human PHD2) of the same molecule?
Its IC50 is 0.59 µM.

With `CC(C)(NC(=O)c1c(O)cc(-c2cc(F)cc(F)c2)n2ncnc12)C(=O)O` [Example 68, 2-{[5-(3,5-difluorophenyl)-7-hydroxy[1,2,4]triazolo[1,5-a]pyridine-8-carbonyl]amino}-2-methylpropionic acid hydrochloride] as the molecule, how does the “production activity (%) at 30 μM” value [1] read?
The value was 0%.

What about the IC50 (human PHD2) of the same molecule?
The IC50 was 5.94 µM.

`O=C(O)CNC(=O)c1c(O)cc(-c2cc(F)cc(Cl)c2)n2ncnc12` [Example 41, {[5-(3-chloro-5-fluorophenyl)-7-hydroxy[1,2,4]triazolo[1,5-a]pyridine-8-carbonyl]amino}acetic acid hydrochloride] was tested. Which EC50 [1] did it give?
Its EC50 is 9.1 µM.

And the IC50 (human PHD2)?
Its IC50 is 0.26 µM.

With `O=C(O)CNC(=O)c1c(O)ccn2nc(-c3ccccc3)nc12` [Example 13, [(7-hydroxy-2-phenyl[1,2,4]triazolo[1,5-a]pyridine-8-carbonyl)amino]acetic acid hydrochloride] as the molecule, how does the “production activity (%) at 30 μM” value [1] read?
Its value is 1%.

What about the IC50 (human PHD2) of the same molecule?
The IC50 was 1.31 µM.

What does the source list for `CC(C)(C)CCc1cc(O)c(C(=O)NCC(=O)O)n2ncnc12` [Example 8, {[8-(3,3-dimethyl-butyl)-6-hydroxy[1,2,4]triazolo[1,5-a]pyridine-5-carbonyl]amino}acetic acid hydrochloride]?
EC50 [1]: 13.4 µM; IC50 (human PHD2): 0.49 µM

For `O=C(O)CNC(=O)c1c(O)cc(CCC2CC2)n2ncnc12` [Example 47, {[5-(2-cyclopropylethyl)-7-hydroxy[1,2,4]triazolo[1,5-a]pyridine-8-carbonyl]amino}acetic acid hydrochloride], which EC50 [1] is on record?
Its EC50 is 12 µM.

And the IC50 (human PHD2)?
The IC50 was 0.56 µM.

For `O=C(O)CNC(=O)c1c(O)cc(-c2ccc(F)c(F)c2)n2ncnc12` [Example 25, {[5-(3,4-difluorophenyl)-7-hydroxy[1,2,4]triazolo[1,5-a]pyridine-8-carbonyl]amino}acetic acid hydrochloride], which EC50 [1] is on record?
The EC50 was 14.1 µM.

And the IC50 (human PHD2)?
The IC50 was 0.25 µM.

Which “production activity (%) at 30 μM” value [1] does the source give for `Cl.O=C(O)CNC(=O)c1c(O)c(-c2ccccc2)cn2c(-c3ccccc3)nnc12` [Example 111, [(7-hydroxy-3,6-diphenyl[1,2,4]triazolo[4,3-a]pyridine-8-carbonyl)amino] acetic acid hydrochloride] here?
The value was 0%.

What about the IC50 (human PHD2) of the same molecule?
The IC50 was 1.1 µM.

For `O=C(O)CNC(=O)c1c(O)cc(-c2cc(F)cc(C3CC3)c2)n2ncnc12` [Example 52, {[5-(3-cyclopropyl-5-fluorophenyl)-7-hydroxy[1,2,4]triazolo[1,5-a]pyridine-8-carbonyl]amino} acetic acid hydrochloride], which EC50 [1] is on record?
Its EC50 is 10.4 µM.

And the IC50 (human PHD2)?
The IC50 was 0.89 µM.

`N#Cc1cccc(-c2cc(O)c(C(=O)NCC(=O)O)c3ncnn23)c1` [Example 37, {[5-(3-cyanophenyl)-7-hydroxy[1,2,4]triazolo[1,5-a]pyridine-8-carbonyl]amino}acetic acid hydrochloride] was tested. Which “production activity (%) at 30 μM” value [1] did it give?
Its value is 11%.

What about the IC50 (human PHD2) of the same molecule?
Its IC50 is 0.2 µM.

`O=C(O)CNC(=O)c1c(O)cc(CCC2CCC2)n2ncnc12` [Example 54, {[5-(2-cyclobutylethyl)-7-hydroxy[1,2,4]triazolo[1,5-a]pyridine-8-carbonyl]amino} acetic acid hydrochloride] was tested. Which EC50 [1] did it give?
Its EC50 is 4.5 µM.

What about the IC50 (human PHD2) of the same molecule?
The IC50 was 0.44 µM.
